One test concerns HCT116 MTAP null cells. Kind of test: HCT116 MTAP null cell line proliferation / cell viability (CellTiter-Glo, 6 days). Type of test: cell-based. The note with it: 144 h; HCT116 MTAP null cells, 6 days treatment, CellTiter-Glo cell viability; read-out: HCT-116 MTAP null IC50. In short, it runs like this: (§1)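 CellTiter-Glo luminescence read after 6 days of compound exposure in parental and MTAP-null HCT116 cells grown in RPMI 1640/10% FBS. Dilution series: 1:3 steps, 8–9 points, top 1 or 10 μM; or 1:2 steps, 22 points, top 10 or 50 μM. IC50 = curve transit through 50% of control.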
(Cellular ATP, detected with luciferase, serves as a proxy for viable cell number.)

The subject of a further test is HCT116 WT cells. Description: HCT116 WT (parent) cell line proliferation / cell viability (CellTiter-Glo, 6 days). Type of test: cell-based. The following applies: Homo sapiens, HCT-116, 144 h, 6 days treatment. Summed up:
as §1

SMILES strings stand for the structures.

By IC50 is commonly meant the midpoint of a concentration-inhibition curve. Consider `CN(C(=O)c1cc2c3c(c(N)nc2cc1Cl)COC3)[C@H]1COc2cc(C(F)(F)F)ccc21` (single isomer, unassigned) [Example 561], for which the IC50 in the test on HCT116 MTAP null cells was 657 nM; in the test with HCT116 WT cells, 10800 nM.

Regarding `CN(C(=O)c1cc2c3c(c(N)nc2cc1Cl)COC3)[C@@H]1COc2nc(C(F)(F)F)ccc21` (single isomer, unassigned) [Example 562], the IC50 in the test with HCT116 MTAP null cells was 26 nM; in the test on HCT116 WT cells, 1820 nM.

Turning to `CN(C(=O)c1cc2c3c(c(N)nc2cc1Cl)COC3)[C@H]1COc2nc(C(F)(F)F)ccc21` (single isomer, unassigned) [Example 563], the IC50 in the test on HCT116 MTAP null cells was determined as 1960 nM; in the test on HCT116 WT cells it was 25100 nM.

As to `CN(C(=O)c1cc2c3c(c(N)nc2cc1Cl)COC3)[C@@H]1COc2cc(S(C)(=O)=O)ccc21` (single isomer, unassigned) [Example 564], the half-maximal inhibitory concentration (IC50) was determined as 19 nM in the test on HCT116 MTAP null cells and 925 nM in the test on HCT116 WT cells.

Consider `CN(C(=O)c1cc2c3c(c(N)nc2cc1Cl)COC3)[C@H]1COc2cc(S(C)(=O)=O)ccc21` (single isomer, unassigned) [Example 565], for which the half-inhibitory concentration (IC50) in the test with HCT116 MTAP null cells stood at 858 nM; with HCT116 WT cells, 15000 nM.

With `CN(C(=O)c1cc2c3c(c(N)nc2cc1Cl)COC3)[C@@H]1COc2cc(C(F)(F)F)cc(F)c21` (single isomer, unassigned) [Example 566], the results for the IC50 in the test with HCT116 MTAP null cells and in the test on HCT116 WT cells were 13 nM and 447 nM, respectively.

`CN(C(=O)c1cc2c3c(c(N)nc2cc1Cl)COC3)[C@H]1COc2cc(C(F)(F)F)cc(F)c21` (single isomer, unassigned) [Example 567]: the IC50 was determined as 313 nM in the test on HCT116 MTAP null cells and 9870 nM with HCT116 WT cells.

`CN(C(=O)c1cc2c(cn1)nc(N)c1cnn(C)c12)[C@@H]1COc2cc(C(F)(F)F)ncc21` (single isomer, unassigned) [Example 568]: the IC50 with HCT116 MTAP null cells was 97 nM; with HCT116 WT cells it was 5800 nM.

`CN(C(=O)c1cc2c(cc1F)nc(N)c1cnn(C)c12)[C@@H]1COc2cc(OC(F)F)ccc21` (single isomer, unassigned) [Example 569]: the IC50 with HCT116 MTAP null cells was determined as 6 nM; in the test with HCT116 WT cells it was 222 nM.

`CN(C(=O)c1cc2c(cc1F)nc(N)c1cnn(C)c12)[C@H]1COc2cc(OC(F)F)ccc21` (single isomer, unassigned) [Example 570]: the figures for the IC50 with HCT116 MTAP null cells and in the test with HCT116 WT cells were 134 nM and 9210 nM, respectively.

For `CN(C(=O)c1cc2c(cc1F)nc(N)c1cnn(C)c12)[C@@H]1COc2cc(C(F)(F)F)ccc21` (single isomer, unassigned) [Example 571], the 50% inhibitory concentration (IC50) in the test with HCT116 MTAP null cells was determined as 10 nM; in the test with HCT116 WT cells, 116 nM.

`CN(C(=O)c1cc2c(cc1F)nc(N)c1cnn(C)c12)[C@H]1COc2cc(C(F)(F)F)ccc21` (single isomer, unassigned) [Example 572]: the 50% inhibitory concentration (IC50) with HCT116 MTAP null cells came out at 758 nM; in the test on HCT116 WT cells, 11400 nM.

In the case of `CN(C(=O)c1cc2c(cc1F)nc(N)c1cnn(C)c12)[C@@H]1COc2cc(C(F)(F)F)ncc21` (single isomer, unassigned) [Example 573], the IC50 in the test on HCT116 MTAP null cells was 12 nM; with HCT116 WT cells it was 685 nM.

On to `CN(C(=O)c1cc2c(cc1F)nc(N)c1cnn(C)c12)[C@H]1COc2cc(C(F)(F)F)ncc21` (single isomer, unassigned) [Example 574], for which the IC50 in the test on HCT116 MTAP null cells stood at 415 nM; in the test on HCT116 WT cells, 40100 nM.

Regarding `CN(C(=O)c1ccc2nc(N)c3c(cnn3C)c2c1)[C@@H]1COc2cc(C(F)(F)F)ccc21` (single isomer, unassigned) [Example 575], the IC50 is 179 nM in the test on HCT116 MTAP null cells and 7610 nM in the test on HCT116 WT cells.

With `CN(C(=O)c1ccc2nc(N)c3c(cnn3C)c2c1)[C@H]1COc2cc(C(F)(F)F)ccc21` (single isomer, unassigned) [Example 576], the IC50 in the test on HCT116 MTAP null cells amounted to 4920 nM; in the test with HCT116 WT cells, 13200 nM.

`CN(C(=O)c1cc2c(cc1F)nc(N)c1c2cnn1C)[C@@H]1COc2cc(OC(F)F)ccc21` (single isomer, unassigned) [Example 577]: the IC50 in the test with HCT116 MTAP null cells is 132 nM; in the test with HCT116 WT cells, 16100 nM.

Take `CN(C(=O)c1ccc2nc(N)c3c(c2c1)COC3)[C@@H]1CCOc2cc(C(F)(F)F)ccc21` (single isomer, unassigned) [Example 578]: the half-maximal inhibitory concentration (IC50) is 222 nM in the test on HCT116 MTAP null cells and 5880 nM in the test with HCT116 WT cells.

`CN(C(=O)c1ccc2nc(N)c3c(c2c1)COC3)[C@H]1CCOc2cc(C(F)(F)F)ccc21` (single isomer, unassigned) [Example 579]: the half-inhibitory concentration (IC50) in the test with HCT116 MTAP null cells came to 2370 nM; in the test with HCT116 WT cells it was 4510 nM.

As to `CCN(C(=O)c1ccc2nc(N)c3c(c2c1)COC3)[C@@H]1COCc2cc(Br)ccc21` (single isomer, unassigned) [Example 580], the values for the half-inhibitory concentration (IC50) with HCT116 MTAP null cells and with HCT116 WT cells were 19 nM and 976 nM, respectively.

In the case of `CCN(C(=O)c1ccc2nc(N)c3c(c2c1)COC3)[C@H]1COCc2cc(Br)ccc21` (single isomer, unassigned) [Example 581], the IC50 in the test on HCT116 MTAP null cells was 790 nM; with HCT116 WT cells it was 17900 nM.

Turning to `COc1ccc2c(c1)COC[C@H]2N(C)C(=O)c1cc2c3c(c(N)nc2cn1)COC3` (single isomer, unassigned) [Example 582], the concentration for half-maximal inhibition (IC50) was determined as 76 nM in the test with HCT116 MTAP null cells and 5580 nM in the test with HCT116 WT cells.

In the case of `CN(C(=O)c1cc2c3c(c(N)nc2cn1)COC3)[C@@H]1COCc2ccc(C(F)(F)F)cc21` (single isomer, unassigned) [Example 583], the IC50 in the test with HCT116 MTAP null cells worked out at 403 nM; in the test on HCT116 WT cells, 8860 nM.

In the case of `CN(C(=O)c1cc2c3c(c(N)nc2cn1)COC3)[C@H]1COCc2ccc(C(F)(F)F)cc21` (single isomer, unassigned) [Example 584], the 50% inhibitory concentration (IC50) with HCT116 MTAP null cells was determined as 6990 nM; in the test with HCT116 WT cells, 50000 nM.

Regarding `CN(C(=O)c1cc2c3c(c(N)nc2cn1)COC3)[C@@H]1CCOc2cc(C(F)(F)F)ccc21` (single isomer, unassigned) [Example 585], the IC50 in the test on HCT116 MTAP null cells is 256 nM; in the test with HCT116 WT cells, 12600 nM.

Take `CN(C(=O)c1cc2c3c(c(N)nc2cn1)COC3)[C@H]1CCOc2cc(C(F)(F)F)ccc21` (single isomer, unassigned) [Example 586]: the IC50 stood at 3020 nM in the test with HCT116 MTAP null cells and 10000 nM in the test on HCT116 WT cells.

In the case of `CCN(C(=O)c1cc2c3c(c(N)nc2cn1)COC3)[C@@H]1COCc2cc(Br)ccc21` (single isomer, unassigned) [Example 587], the concentration for half-maximal inhibition (IC50) in the test on HCT116 MTAP null cells was 21 nM; in the test on HCT116 WT cells, 573 nM.

As for `CCN(C(=O)c1cc2c3c(c(N)nc2cn1)COC3)[C@H]1COCc2cc(Br)ccc21` (single isomer, unassigned) [Example 588], the IC50 with HCT116 MTAP null cells amounted to 1980 nM; in the test on HCT116 WT cells, 10000 nM.

As for `CN(C(=O)c1cnc2nc(N)c3c(c2c1)COC3)[C@H]1COCc2cc(Br)ccc21` (single isomer, unassigned) [Example 589], the concentration for half-maximal inhibition (IC50) with HCT116 MTAP null cells amounted to 7950 nM; with HCT116 WT cells, 34700 nM.

Regarding `CN(C(=O)c1cnc2nc(N)c3c(c2c1)COC3)[C@@H]1COCc2cc(Br)ccc21` (single isomer, unassigned) [Example 590], the figures for the IC50 with HCT116 MTAP null cells and in the test on HCT116 WT cells were 129 nM and 4500 nM, respectively.

Regarding `CN(C(=O)c1cc2c3c(c(N)nc2cc1F)COC3)[C@@H]1COCc2cc(S(C)(=O)=O)ccc21` (single isomer, unassigned) [Example 591], the concentration for half-maximal inhibition (IC50) was 26 nM with HCT116 MTAP null cells and 1600 nM with HCT116 WT cells.

On to `C[C@H]1OCc2c1c(N)nc1cc(F)c(C(=O)N(C)[C@@H]3COCc4cc(S(C)(=O)=O)ccc43)cc21` (single isomer, unassigned) [Example 592], for which the IC50 is 21 nM with HCT116 MTAP null cells and 1020 nM in the test on HCT116 WT cells.

For the compound `Cn1ncc2c(N)nc3ccc(C(=O)N(CC4CC4)[C@@H]4COCc5nc(C(F)(F)F)ccc54)cc3c21` (single isomer, unassigned) [Example 593], the concentration for half-maximal inhibition (IC50) amounted to 5 nM in the test with HCT116 MTAP null cells and 201 nM in the test with HCT116 WT cells.

Consider `Cn1ncc2c(N)nc3ccc(C(=O)N(CC4CC4)[C@H]4COCc5nc(C(F)(F)F)ccc54)cc3c21` (single isomer, unassigned) [Example 594], for which the concentration for half-maximal inhibition (IC50) in the test with HCT116 MTAP null cells is 228 nM; in the test with HCT116 WT cells, 19400 nM.

Take `CN(C(=O)c1cc2c(cc1F)nc(N)c1cnn(C)c12)[C@@H]1COCc2cc(C#N)ccc21` (single isomer, unassigned) [Example 595]: the results for the IC50 in the test with HCT116 MTAP null cells and in the test on HCT116 WT cells were 5 nM and 275 nM, respectively.

Turning to `CN(C(=O)c1cc2c(cc1F)nc(N)c1cnn(C)c12)[C@H]1COCc2cc(C#N)ccc21` (single isomer, unassigned) [Example 596], the figures for the 50% inhibitory concentration (IC50) in the test with HCT116 MTAP null cells and in the test on HCT116 WT cells were 185 nM and 17100 nM, respectively.

With `CN(C(=O)c1cc2c(cc1F)nc(N)c1cnn(C)c12)[C@@H]1COCc2c1ccc(F)c2F` (single isomer, unassigned) [Example 597], the half-inhibitory concentration (IC50) with HCT116 MTAP null cells is 15 nM; in the test on HCT116 WT cells it was 795 nM.

Regarding `CN(C(=O)c1cc2c(cc1F)nc(N)c1cnn(C)c12)[C@H]1COCc2c1ccc(F)c2F` (single isomer, unassigned) [Example 598], the values for the IC50 in the test on HCT116 MTAP null cells and with HCT116 WT cells were 416 nM and 10100 nM, respectively.

As to `CN(C(=O)c1cc2c(cc1F)nc(N)c1cnn(C)c12)[C@@H]1COCc2cc(C(F)(F)F)cnc21` (single isomer, unassigned) [Example 599], the half-inhibitory concentration (IC50) in the test on HCT116 MTAP null cells stood at 64 nM; with HCT116 WT cells it was 3820 nM.

Regarding `CN(C(=O)c1cc2c(cc1F)nc(N)c1cnn(C)c12)[C@@H]1COCc2cc(S(C)(=O)=O)ccc21` (single isomer, unassigned) [Example 600], the IC50 in the test with HCT116 MTAP null cells was determined as 10 nM; in the test with HCT116 WT cells, 226 nM.

Take `C[C@H]1OC[C@@H](N(C)C(=O)c2ccc3nc(N)c4c(cnn4C)c3c2)c2ccc(C(F)(F)F)cc21` (single isomer, unassigned) [Example 601]: the IC50 with HCT116 MTAP null cells turned out to be 21 nM; in the test with HCT116 WT cells, 2100 nM.

`C[C@H]1OC[C@H](N(C)C(=O)c2ccc3nc(N)c4c(cnn4C)c3c2)c2ccc(C(F)(F)F)cc21` (single isomer, unassigned) [Example 602]: the IC50 was determined as 4260 nM in the test on HCT116 MTAP null cells and 21300 nM in the test with HCT116 WT cells.

The values are drawn from patent US20240124442A1, “TRICYCLIC-AMIDO-BICYCLIC PRMT5 INHIBITORS” (AMGEN INC., priority 2021, published 2024).
